# Data taken from patent EP1228077B1, “RUTHENIUM (II) COMPLEXES WITH HIGH ANTITUMORAL AND ANTIMETASTATIC ACTIVITIES” (priority 1999, dated 2001).
# Experiments:
# Type in all cases: in vivo
# [1] = Example 8: systemic toxicity (body weight) in tumour-bearing mice
# Protocol: Four groups each composed of 6 CBA/Lac kin female […] weighing 23±3 g. were inoculated on day 0 with tumour cells according to the protocol described in the previous examples. From day 12 to day 17, after tumour implantation, the four groups of mice were treated intraperitoneally using a sterile insulin syringe, respectively with: • Group 1: Control: 10 ml/kg body weight/die of sterile and pyrogen-free physiological solution; • Group 2: ASC: 6.69 mg/kg body weight/die of ascorbic acid in sterile and pyrogen-free physiological solution; • Group 3: RUT: 35 mg/kg body weight/die of Ruthenium (III) complex, (lmH)[trans-RuCl4(Me2SO)(Im)] in sterile and pyrogen-free physiological solution; • Group 4: RUT+ASC: 35 mg/kg body weight/die of Ruthenium (III) complex (lmH)[trans-RuCl4(Me2SO)(lm)] and 6.69 mg/kg body weight/ die of ascorbic acid in sterile and pyrogen-free physiological saline solution.
# The reducing agent (ascorbic acid) was used in a equivalent ratio of 1 with the Ruthenium (III) complex. The redox reaction was immediate.
# The administration took place after analytical control of the complete reduction of the Ruthenium (III) complex to Ruthenium (II).
# On day 18 from tumour implantation, the primary tumour and the spleen were removed and weighed, as described previously.
# The experiment confirms the lower toxicity of the Ruthenium (II) complexes of the invention (group 4) with respect to the prior art Ruthenium (III) complexes (group 3).
# MCa mammary carcinoma [2] = test: Example 4: prevention of lung metastases in mice with MCa mammary carcinoma; conditions: lung metastases on day 21, i.p. treatment day 12 to 17; for Metastases Number: CBA/Lac female mice, 6 per group
# Protocol: Six groups composed of 6 CBA\Lac kin female mice, weighing 23±3 g were inoculated on day 0 with 10^6 viable cells (as determined with Trypan blue-exclusion test) of MCa mammary carcinoma, in 0.05 ml volume of Dulbecco's buffered at pH 7.4 calcium and magnesium-free saline physiological solution (D-PBS), by intramuscular injection with a sterile insulin syringe. The tumour cells derive from donors of the same strain, were transplanted with an insulin sterile syringe accordingly to the same procedure two weeks before. The tumour cells in PBS suspension were prepared by mechanical mincing of the tumour mass obtained from donor mice and by further removing tissue and cell debris by filtration through a double layer of sterile gauze and further centrifugation at 250xg for 10 minutes. The kin animals were derived from a colony obtained from Chester Beatthy, London (UK) and grown in the University of Trieste pound according to the procedures for the rearing of kin animals. The MCa mammary carcinoma tumour line derives from a stock, kept in liquid nitrogen, of tumour cells obtained originally from Rudjer Boskovic Institute, Zagreb (HR).
# From day 12 to day 17 after tumour implantation, the six groups of mice were treated intraperitoneally using an insulin sterile syringe, respectively with: • Group 1. Control: […] body weight/die of sterile pyrogen-free physiological solution; • Group 2. ASC: 6.69 mg/kg body weight/die of ascorbic acid in sterile and pyrogen-free physiological solution; • Group 3. CYST: 12 mg/kg body weight/die of […] in sterile and pyrogen-free physiological solution; • Group 4. RUT: 35 mg/kg body weight/die of Ruthenium (III) complex, (lmH)[trans-RuCl4(Me2SO)(Im)] in pyrogen-free and sterile physiological solution; • Group 5. RUT-ASC: 35 mg/kg body weight/die of the Ruthenium (III) complex, (ImH)[trans-RuCl4(Me2SO)(Im)] and 12 mg/kg body weight/die of cysteine in sterile and pyrogen-free physiological saline solution; • Group 6. RUT-CYST: 35 mg/kg body weight/die of the Ruthenium (III) complex, (ImH)[trans-RuCl4(Me2SO)(Im)] and 12 mg/kg body weight/die of cysteine in sterile and pyrogen-free physiological saline solution.
# The reducing agents ascorbic acid and cysteine were used in a equivalent ratio corresponding to 1 with the Ruthenium (III) complex. The redox reaction was immediate. The administration took place after analytical control of the complete reduction of the Ruthenium (III) complex to Ruthenium (II).
# (§1) On day 17 from tumour implantation, the growth of the primary tumour was evaluated and the tumor surgically removed after general anaesthesia of the animals with ketamine. The tumor size was determined by measuring both orthogonal axes of the tumour by means of a caliber, the weight in grams of the rotation solid developed around these axes was measured, considering the tumour density equal to 1 and using the formula. (π/6).a^2.b, wherein a was the minor and b the major axis.
# On day 21 from tumour implantation, the mice were sacrificed by cervical dislocation and lung metastases were analyzed. The lungs removed from the animal immediately after sacrifice, were divided in single lobes, which were then examined immediately with a low-magnification microscope equipped with an ocular-grid for the measurement of the metastases sizes from which the two orthogonal a and b axes (with a ≤b) are identified. The metastases were then grouped on the basis of their dimensions and the metastatic tumour weight was calculated as the sum of the weight of each single metastasis, each of them regarded as a rotation solid developed around the above mentioned axes, and with a volume calculated by the same formula used for the primary tumour. The experimental data obtained were therefore processed by appropriate statistical tests. The results are reported in Table 1 wherein the number and weight of lung metastases obtained in each group of animal are shown.
# MCa mammary carcinoma [3] = test: Example 5: prevention of lung metastases in mice with MCa mammary carcinoma; conditions: lung metastases on day 23, i.p. treatment day 10 to 15; for Metastases Number: CBA/Lac female mice, 7 per group
# Protocol: In a further experiment similar to the previous one, six groups of animals, each of them composed of 7 CBA/Lac kin female mice, weighing 23±3 g were inoculated on day 0 with cells of MCa mammary carcinoma, according to the protocol described in the previous example. From day 10 to day 15 after tumour implantation, the 6 groups of mice were treated intraperitoneally using a sterile insulin syringe, respectively with: • Group 1: […] RUT: 35 mg/kg body weight/die of Ruthenium (III) complex, (ImH)[trans-RuCl4(Me2SO)(Im)] in sterile and pyrogen-free physiological saline solution; • Group 5: […] The reducing agents glutathione and cysteine were used in an equivalent ratio of 1 with the Ruthenium (III) complex. The redox reaction was immediate. The administration took place after the analytical control of total reduction of the Ruthenium (III) to Ruthenium (II) complexes. On day 16 from tumour implantation, the growth of the primary tumour as described in the previous example was evaluated. On day 23 from tumour implantation, the mice were sacrificed and the metastases were evaluated as in previous example. The experimental data obtained were processed by appropriate statistical tests and reported in Table 2, wherein the number and weight of lung metastases obtained in the treated group of animals are also reported.
# [4] = Example 7: systemic toxicity (body weight, spleen weight) in tumour-bearing mice
# Protocol: Four groups, each of them composed of 7 CBA/Lac-kin female mice weighing 23±3 g on day 0 were inoculated with MCa mammary carcinoma cells according to the protocol described in the previous examples. From day 11 to day 16 after tumour implantation, the four groups of mice were treated intraperitoneally using a sterile insulin syringe, respectively with: • Group 1: Control: 10 ml/kg body weight/die of sterile and pyrogen-free physiological solution; • Group 2: CYST: 2 mg/kg body weight/die of cysteine in sterile and pyrogen-free physiological solution; • Group 3: RUT: 35 mg/kg body weight/die of Ruthenium (III) complex (lmH)[trans-RuCl4(Me2SO)(Im)] in sterile and pyrogen-free physiological solution; • Group 4: RUT-CYST: 35 mg/kg body weight/die of Ruthenium (III) complex , (ImH)[trans-RuCl4(Me2SO)(lm)] and 12 mg/kg body weight/die of cysteine in sterile and pyrogen-free physiological solution.
# The reducing agent (cysteine) was used in a equivalent ratio of 1with the Ruthenium (III) complex. The redox reaction was immmediate.
# The administration took place after analytical control of the complete reduction of the Ruthenium (III) to Ruthenium (II) complexes.
# (§2) On day 17 from tumour implantation, the mice were sacrificed, the primary tumour and the spleen were removed and analysed as in the previous example. […]
# The data reported in the Table 4 indicate how the body weight and the spleen weight, which are indicators of the systemic toxicity of the treatment, turned out to be more similar to the control (group 1) when the mice were treated with the Ruthenium (II) complexes according to the invention (group 4) than when treated with Ruthenium (III) (group 3) only.
# [5] = test system: Lewis lung carcinoma (LLC); test: Example 6: lung metastases in BD2F1 mice with Lewis lung carcinoma; conditions: day 20; treatment day 8 to 13
# Protocol: Groups of 7 BD2F1 female mice were inoculated by means of intramuscular injection on day 0 with cells of Lewis lung carcinoma (LLC). From day 8 to day 13 the animals were treated with the Ruthenium (III) complex [trans-RuCl4(DMSO)(lm)](lmH), (compound of formula II) and with the Ruthenium (II) complex, trans-RuCl2(DMSO)4, both belonging to the state of the art. On day 20 from tumour implantation, the mice were sacrificed and the metastases evaluated. All the procedures of the experiments were carried out as reported in the previous examples.
# MCa mammary carcinoma [6] = test: Example 7: primary tumour weight variation in mice with MCa mammary carcinoma; conditions: weight variation with respect to the controls, day 11 to day 17; i.p. treatment day 11 to 16
# Protocol: as §1
# Four groups, each of them composed of 7 CBA/Lac-kin female mice weighing 23±3 g on day 0 were inoculated with MCa mammary carcinoma cells according to the protocol described in the previous examples. […]
# as §2
# [7] = day 17, after i.p. treatment day 11 to 16
SMILES,%T/C (metastases weight in the treated animals/metastases weight in the controls) (MCa mammary carcinoma [2]) [%],Metastases Weight (MCa mammary carcinoma [2]) [mg],a.p./a.t (number of animals devoid of metastases/ total number of animals) (MCa mammary carcinoma [2]),Metastases Number (MCa mammary carcinoma [2]),%T/C (metastases weight in the treated animals/metastases weight in the controls) (MCa mammary carcinoma [3]) [%],Metastases Weight (MCa mammary carcinoma [3]) [mg],Metastases Number (MCa mammary carcinoma [3]),Lung Metastases Number %T/C [5] [%],Lung Metastases Weight [5],Lung Metastases Weight %T/C [5] [%],other results
"O=C1O[C@H]([C@@H](O)CO)C(O)=C1O [ASC, ascorbic acid]",86,81.5 ± 14,0/6,18.3± 8.6,–,–,–,–,–,–,"Body weight (day 12) ([1]; day 12, start of i.p. treatment): 27.6±0.7; Body weight (day 18) ([1]; day 18, after i.p. treatment day 12 to 17): 26.7±1.2"
"N[C@@H](CCC(=O)N[C@@H](CS)C(=O)NCC(=O)O)C(=O)O [GLU, glutathione]",–,–,–,–,75,138.8 ± 20.5,47.0±3.9,–,–,–,–
"N[C@@H](CS)C(=O)O [CYST, cysteine]",103,94.6 ± 26,0/6,35.0± 13.5,76,141.2 ± 15.1,30.5±7.2,–,–,–,"% variation (body weight) ([4]; body weight variation with respect to the controls, day 11 to 17): -2.5%; Body weight (day 11) ([4]; day 11, start of i.p. treatment): 30.5±0.6; Body Weight (day 17) [4, 7]: 28.8±0.6; Spleen weight (day 17) [4, 7]: 297± 3.3"
"CS(C)=O.[Cl-].[Cl-].[Cl-].[Cl-].[Ru+3].c1c[nH+]c[nH]1.c1c[nH]cn1 [RUT, (ImH)[trans-RuCl4(Me2SO)(Im)]]",16,15.2 ± 2.3,0/6,7.0± 1.9,45,83.6 ± 4.5,27.5±3.0,38,47.6±11.5,25,"Body weight (day 12) ([1]; mouse, in vivo, ip): 27.0±0.9; Body weight (day 18) ([1]; mouse, in vivo, ip): 23.3±0.8; Body Weight (day 17) ([4]; mouse, in vivo, ip): 26.5±0.8; Body weight (day 11) ([4]; mouse, in vivo, ip): 30.0±1.0; Spleen weight (day 17) ([4]; mouse, in vivo, ip): 197± 8.8; % Variation of the primary tumour (MCa mammary carcinoma [6]): -30.3%"
C[SH](C)(=O)[Ru]([Cl])([Cl])([SH](C)(C)=O)([SH](C)(C)=O)[SH](C)(C)=O [trans-RuCl2(DMSO)4],–,–,–,–,–,–,–,82,85.5±19.3,45,–
